The source of these data is ChEMBL document CHEMBL1201862, “PubChem BioAssay data set” (2004).

Test systems include SF-295; U-251; HT-29; HOP-62; SR; RPMI-8226; NCI-H460; COLO 205; 786-0; HCT-15; T47D; HCC 2998; UO-31; SK-OV-3; NCI-H23; IGROV-1; PC-3; HL-60; BT-549; A498.
Common to all, as to test: DTP human tumour cell line panel, 48 h

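Briefly, cells in 96-well plates were exposed to five compound concentrations for 48 h, and endpoints were estimated by linear interpolation. GI50: concentration for 50% inhibition of growth.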 Active and inactive are the calls of the source. Rule as the data show it: active = GI50 up to about 1.1 µM and inactive = higher. Peptide text beside a SMILES is read from it. * marks the point of attachment. Boc = CC(C)(C)OC(=O)*; OBn = c1ccc(CO*)cc1

Take `c1coc(C2=Nc3cccc4cccc(c34)N2)c1`: the GI50 in the assay on SF-295 is 34 µM (inactive); with U-251, 69 µM (inactive); in the assay with HT-29 it was 23.2 µM (inactive); in the assay on HOP-62 it was > 100 µM (inactive); in the assay with SR it was > 100 µM (inactive); in the assay on RPMI-8226, 71.8 µM (inactive). In addition, the GI50 in the assay with NCI-H460 was 34.8 µM (inactive); in the assay on COLO 205, 14.8 µM (inactive); in the assay with 786-0, 53.3 µM (inactive); with HCT-15, 26.5 µM; with T47D, 8.49 µM (inactive); in the assay on HCC 2998, 34.9 µM (inactive). In addition, the GI50 in the assay with UO-31 was 16.2 µM (inactive); in the assay on SK-OV-3, 98.4 µM (inactive); in the assay with NCI-H23, 44.8 µM (inactive); with IGROV-1 it was > 100 µM (inactive); in the assay on PC-3, 24.2 µM (inactive); in the assay with HL-60, 19.5 µM (inactive). Also, the GI50 with BT-549 was 44.5 µM (inactive).

With `C=C1C(=O)OC2(C)CCC1CC1OC1(C)CCC=C(C)CCC2O` (configuration not stated), the GI50 is > 100 µM (inactive) in the assay on SF-295; > 100 µM (inactive) in the assay with U-251; > 100 µM (inactive) in the assay with HT-29; 53 µM (inactive) in the assay with RPMI-8226; 46.9 µM (inactive) in the assay with NCI-H460; > 100 µM (inactive) in the assay with COLO 205. Further, the GI50 was > 100 µM (inactive) with 786-0; 69.3 µM with HCT-15; > 100 µM (inactive) in the assay on T47D; > 100 µM (inactive) with HCC 2998; 57.7 µM (inactive) in the assay with UO-31; > 100 µM (inactive) with SK-OV-3. Besides, the GI50 with NCI-H23 was > 100 µM (inactive); with IGROV-1 it was > 100 µM (inactive); in the assay on PC-3 it was > 100 µM (inactive); with HL-60, 21.7 µM (inactive); in the assay on BT-549 it was 6.24 µM (inactive); in the assay on A498 it was 35.9 µM (inactive).

`O=[N+]([O-])c1ccc(-n2nc3ccc4nonc4c3n2)cc1`: the GI50 is 28 µM (inactive) in the assay on SF-295; 77.1 µM (inactive) in the assay with U-251; > 100 µM (inactive) with HT-29; 16.6 µM (inactive) in the assay with HOP-62; > 100 µM (inactive) in the assay with SR; > 100 µM (inactive) in the assay on RPMI-8226. The GI50 in the assay with NCI-H460 is 37.3 µM (inactive); with COLO 205, > 100 µM (inactive); in the assay with 786-0 it was 28.1 µM (inactive); in the assay with HCT-15, > 100 µM; with T47D, 29.6 µM (inactive); in the assay on HCC 2998 it was 97.3 µM (inactive). The GI50 is 21.3 µM (inactive) in the assay with UO-31; 20 µM (inactive) in the assay on SK-OV-3; 23.7 µM (inactive) in the assay with NCI-H23; 27.9 µM (inactive) in the assay on IGROV-1; 74.3 µM (inactive) with PC-3; > 100 µM (inactive) in the assay on HL-60. Besides, in the assay on BT-549, the GI50 was 22.7 µM (inactive).

`O=C1N=C(SC(SC2=NC(=O)C3(NN2)c2ccccc2-c2ccccc23)=C(SC2=NC(=O)C3(NN2)c2ccccc2-c2ccccc23)SC2=NC(=O)C3(NN2)c2ccccc2-c2ccccc23)NNC12c1ccccc1-c1ccccc12`: the GI50 in the assay on SF-295 is > 10 µM (inactive); with HT-29, 6.61 µM (inactive); in the assay on HOP-62 it was > 10 µM (inactive); in the assay on SR, 3.24 µM (inactive); with RPMI-8226 it was 3.59 µM (inactive); with NCI-H460, 3.33 µM (inactive). The GI50 is 7.21 µM (inactive) in the assay on COLO 205; 9.66 µM (inactive) with 786-0; 3.62 µM in the assay with HCT-15; 0.935 µM (active) with T47D; > 10 µM (inactive) in the assay on HCC 2998; 3.18 µM (inactive) with UO-31. For the same molecule, the GI50 with SK-OV-3 was > 10 µM (inactive); in the assay on NCI-H23, 7.59 µM (inactive); in the assay on IGROV-1, 8.2 µM (inactive); in the assay with PC-3, 4.62 µM (inactive); in the assay on BT-549, 6.53 µM (inactive).

Consider `CC1=CC(=O)/C(=C/NC(=S)Nc2ccccc2)C(=O)O1`, for which the GI50 in the assay with SF-295, in the assay on U-251, with HT-29, in the assay on HOP-62, with RPMI-8226 and in the assay on NCI-H460 was > 100 µM (inactive) each time. The GI50 in the assay on COLO 205 is > 100 µM (inactive); in the assay with 786-0, > 100 µM (inactive); in the assay on HCT-15, > 100 µM; with T47D it was > 100 µM (inactive); with HCC 2998, > 100 µM (inactive); in the assay with UO-31, > 100 µM (inactive). Further, the GI50 in the assay with SK-OV-3, with NCI-H23, in the assay with IGROV-1, in the assay on PC-3, with HL-60 and with BT-549 was > 100 µM (inactive) in each case. In the assay on A498, the GI50 is > 100 µM (inactive).

Consider `CC(NC(=O)Cc1ccccc1)NC(=O)C(C)C(=O)Nc1ccccc1` (configuration not stated), for which the GI50 with SF-295 is > 100 µM (inactive); in the assay on U-251 it was 43.3 µM (inactive); with HT-29, > 100 µM (inactive); with SR, > 100 µM (inactive); with RPMI-8226, > 100 µM (inactive); with NCI-H460, > 100 µM (inactive). Also, the GI50 was > 100 µM (inactive) with COLO 205; 52.2 µM (inactive) with 786-0; > 100 µM with HCT-15; > 100 µM (inactive) in the assay on T47D; 43.7 µM (inactive) with UO-31; 51.6 µM (inactive) in the assay with SK-OV-3. Moreover, the GI50 in the assay on NCI-H23 was > 100 µM (inactive); in the assay on IGROV-1 it was 61.5 µM (inactive); with PC-3, > 100 µM (inactive); in the assay with HL-60 it was > 10 µM (inactive); in the assay on BT-549 it was 43.5 µM (inactive).

Turning to `CC1(C)C2CC(O)C1CCC2=O` (configuration not stated), the GI50 in the assay on SF-295, with U-251, in the assay with HT-29, in the assay on HOP-62, in the assay on RPMI-8226 and in the assay on NCI-H460 was > 100 µM (inactive) throughout. The GI50 was > 100 µM (inactive) in the assay with COLO 205; > 100 µM (inactive) with 786-0; > 100 µM with HCT-15; > 100 µM (inactive) in the assay on T47D; > 100 µM (inactive) in the assay on HCC 2998; > 100 µM (inactive) in the assay with UO-31. In addition, the GI50 in the assay with SK-OV-3, with NCI-H23, in the assay on PC-3, with HL-60, with BT-549 and in the assay with A498 was > 100 µM (inactive) in each case.

On to `CC(C)CC(NC(=O)OC(C)(C)C)C(=O)NC(CC(=O)OCc1ccccc1)C(N)=O` (stereo not drawn) (Boc-Leu-Asp(OBn)-NH2; configuration not given here), for which the GI50 with SF-295, in the assay with U-251, with HT-29, in the assay on SR, in the assay on COLO 205 and with 786-0 was > 100 µM (inactive) each time. The GI50 with HCT-15 is > 100 µM; in the assay on T47D it was > 100 µM (inactive); in the assay on UO-31 it was > 100 µM (inactive); in the assay on SK-OV-3, > 100 µM (inactive); in the assay on NCI-H23, > 100 µM (inactive); in the assay with IGROV-1 it was > 100 µM (inactive). In addition, the GI50 with PC-3, in the assay on BT-549 and in the assay with A498 was > 100 µM (inactive) throughout.

In general, GI50 refers to the concentration that inhibits growth by half.
